{"source": "patent US20250000839A1", "about": "“PHARMACEUTICAL COMPOSITION COMPRISING ENAVOGLIFLOZIN” (DAEWOONG PHARMACEUTICAL CO., LTD., priority 2021, published 2025)", "origin": "cited, not measured here", "key": {"[1]": {"settings": "phase 2 clinical trials; 0.1 mg, 0.3 mg and 0.5 mg groups"}, "[2]": {"settings": "at a very low dose of 1/100th of the dose compared to the same class of drugs"}, "human SGLT2": {"target": "T1, human SGLT2 (Homo sapiens, UniProt P31639)", "T1 sequence (P31639 1-672)": "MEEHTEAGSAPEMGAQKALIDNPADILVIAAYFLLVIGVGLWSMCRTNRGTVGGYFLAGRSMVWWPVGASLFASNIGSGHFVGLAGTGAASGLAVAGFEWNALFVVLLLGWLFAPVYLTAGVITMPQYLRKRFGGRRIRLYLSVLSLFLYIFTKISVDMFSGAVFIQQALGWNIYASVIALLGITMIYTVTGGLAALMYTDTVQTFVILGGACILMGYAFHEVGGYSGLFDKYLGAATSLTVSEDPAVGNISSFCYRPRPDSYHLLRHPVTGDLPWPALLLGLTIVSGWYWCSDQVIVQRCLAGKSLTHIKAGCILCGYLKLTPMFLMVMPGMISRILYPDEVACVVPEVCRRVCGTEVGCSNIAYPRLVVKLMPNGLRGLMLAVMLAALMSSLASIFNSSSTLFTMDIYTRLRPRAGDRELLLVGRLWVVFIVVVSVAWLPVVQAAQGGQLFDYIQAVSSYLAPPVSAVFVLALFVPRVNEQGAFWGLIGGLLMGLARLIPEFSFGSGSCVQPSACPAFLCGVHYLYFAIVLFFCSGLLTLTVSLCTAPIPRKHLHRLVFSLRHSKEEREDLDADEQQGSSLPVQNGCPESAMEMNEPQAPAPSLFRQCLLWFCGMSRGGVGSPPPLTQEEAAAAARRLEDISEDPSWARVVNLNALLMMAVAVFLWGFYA", "settings": "disclosed in U.S. Patent Publication No. 2015/0152075"}}, "data": [{"molecule": "OC[C@H]1O[C@@H](c2cc(Cc3ccc(C4CC4)cc3)c(Cl)c3c2CCO3)[C@H](O)[C@@H](O)[C@@H]1O", "note": "[enavogliflozin, (2S,3R,4R,5S,6R)-2-(7-chloro-6-(4-cyclopropylbenzyl)-2,3-dihydrobenzofuran-4-yl)-6-(hydroxymethyl)tetrahydro-2H-pyran-3,4,5-triol]", "values": [{"measurement": "blood sugar-lowering effect compared to the placebo", "setting": "[1]", "value": "statistically significant blood sugar-lowering effect"}, {"measurement": "urinary sugar secretion (glucose excreted in urine) efficacy", "setting": "[2]", "value": "excellent"}, {"measurement": "inhibitory effect on human SGLT2 activity", "setting": "human SGLT2", "value": "excellent inhibitory effect"}]}]}
